Reference: patent US20190127359A1, “Compounds & Methods for the Enhanced Degradation of Targeted Proteins & Other Polypeptides by an E3 Ubiquitin Ligase” (YALE UNIVERSITY, priority 2012, published 2019)

Experiments:
VHL [1] = biological target: T1, VHL (Homo sapiens, UniProt P40337); experiment: WaterLOGSY and saturation transfer difference (STD) NMR binding; settings: FIG. 2
VHL [2] = biological target: T1, VHL; experiment: Fluorescence polarization competition assay (HIF-1α peptide FP displacement)

binding to VHL by WaterLOGSY NMR spectroscopy (VHL [1]) | IC50 (VHL [2]; IC50 (μM) 1% DMSO, 1% DMSO) [µM] | IC50 (VHL [2]; IC50 (μM) 10% DMSO, 10% DMSO) [µM] | Compound
 | 220 | 192 | COCc1cn(CC(=O)N2C[C@H](O)C[C@H]2C(=O)NCc2ccc(Cl)cc2)nn1 [VL141]
 | > 1000 | 780 | Cc1cc(CC(=O)N2C[C@H](O)C[C@H]2C(=O)OCc2ccc(-c3ccccc3)cc2)on1 [VL142]
 | 196 | 129 | Cc1cc(CC(=O)N2C[C@H](O)C[C@H]2C(=O)NCc2ccc(C(=O)O)cc2)on1 [VL146]
 | > 1000 | > 1000 | Cc1cc(CC(=O)N2C[C@H](O)C[C@H]2C(=O)N(C)Cc2ccc(Cl)cc2)on1 [VL147]
 | 113 | 23.8 | CCOC(=O)Cn1cc(-c2cccc(C(=O)N3C[C@H](O)C[C@H]3C(=O)NCc3ccc(Cl)cc3)c2)nn1 [VL148]
 | 41 | 16 | Cc1cc(CC(=O)N2C[C@H](O)C[C@H]2C(=O)NCc2ccc(-c3ccncc3)cc2)on1 [VL150]
 | 33 | 11 | Cc1cc(CC(=O)N2C[C@H](O)C[C@H]2C(=O)NCc2ccc(-c3ccc(F)nc3)cc2)on1 [VL151]
 |  | 978 | COC(=O)Cc1cn(-c2ccccc2C(=O)N2C[C@H](O)C[C@H]2C(=O)NCc2ccc(Cl)cc2)nn1 [VL153]
 | 77 | 118 | Cc1cc(CC(=O)N2C[C@H](O)C[C@H]2C(=O)NCc2ccc(-c3cscn3)cc2)on1 [VL154]
 | > 1000 | > 1000 | O=C(NCc1ccc(Cl)cc1)[C@@H]1C[C@@H](O)CN1C(=O)Cn1ccnc1 [VL156]
 | 360 | 372 | Cn1cc(CC(=O)N2C[C@H](O)C[C@H]2C(=O)NCc2ccc(Cl)cc2)cn1 [VL157]
 | 180 | 266 | Cc1cc(CC(=O)N2C[C@H](O)C[C@H]2C(=O)NCc2ccc(-c3cnc[nH]3)cc2)on1 [VL158]
 | 54 | 66.9 | Cc1cc(CC(=O)N2C[C@H](O)C[C@H]2C(=O)NCc2ccc(-c3cccnc3)cc2)on1 [VL159]
 |  | 235 | Cc1cc(CC(=O)N2C[C@H](O)C[C@H]2C(=O)N[C@H](CO)c2ccc(Cl)cc2)on1 [VL162]

The next lines start with the compound.

Compound | binding to VHL by WaterLOGSY NMR spectroscopy (VHL [1]) | IC50 (VHL [2]; IC50 (μM) 1% DMSO, 1% DMSO) [µM] | IC50 (VHL [2]; IC50 (μM) 10% DMSO, 10% DMSO) [µM]
O=C(O)[C@@H]1C[C@@H](O)CN1 [L-Hyp] | not |  | 
O=C(NCc1ccc(-c2ccccc2)cc1)[C@@H]1C[C@@H](O)CN1Cc1ccccc1Cl [VL143] |  | > 1000 | > 1000
Cc1cc(CC(=O)N2C[C@H](O)C[C@H]2C(=O)OCc2ccc(Cl)cc2)on1 [VL144] |  | > 1000 | > 1000
Cc1cc(CCN2C[C@H](O)C[C@H]2C(=O)NCc2ccc(-c3ccccc3)cc2)on1 [VL145] |  | > 1000 | > 1000
Cc1cc(CC(=O)N2C[C@H](O)C[C@H]2C(=O)NCc2ccc(-c3c(C)n[nH]c3C)cc2)on1 [VL152] |  | 32 | 22.8
Cc1cc(CC(=O)N2C[C@H](O)C[C@H]2C(=O)NCc2ccc(-c3cncs3)cc2)on1 [VL155] |  | 14 | 17.4
Cc1cc(CC(=O)N2C[C@H](O)C[C@H]2C(=O)NCc2ccc(-c3ccn[nH]3)cc2)on1 [VL160] |  | 9 | 12.1
Cc1cc(CC(=O)N2C[C@H](O)C[C@H]2C(=O)N[C@@H](CO)c2ccc(Cl)cc2)on1 [VL161] |  | 35 | 36.4
CCCNC(=O)OC[C@@H](NC(=O)[C@@H]1C[C@@H](O)CN1C(=O)Cc1cc(C)no1)c1ccc(Cl)cc1 [VL163] |  | 610 | 508
CCCNC(=O)OC[C@H](NC(=O)[C@@H]1C[C@@H](O)CN1C(=O)Cc1cc(C)no1)c1ccc(Cl)cc1 [VL164] |  | 40 | 72.9
